The text below walks through data of EP1271240B1, “Silver halide color photographic material” (KONICA CORPORATION, priority 2001, dated 2003).

This series can be described thus: Dissolution temperature of coupler in tricresyl phosphate and ethyl acetate. It is filed as physicochemical. To be noted: 1 g coupler, tricresyl phosphate of equal weight and ethyl acetate of three times the weight; temperature at which the coupler was completely dissolved. The source says:
Structures of comparative couplers a to e are respectively shown below. [drawing 115] [drawing 116] [drawing 117] [drawing 118] [drawing 119]

Turning to `CCC(C)(C)c1ccc(OCCCCNC(=O)c2nn3c(-c4cc(Cl)cc(Cl)c4)n[nH]c3c2Cl)c(C(C)(C)CC)c1` [Coupler b], the “Dissolution Temperature” value turned out to be 60 °C.
As for `CCC(C)(C)c1ccc(OCCCCNC(=O)C(NC(=O)c2nn3c(-c4ccc(Cl)c(Cl)c4)n[nH]c3c2Cl)C(C)C)c(C(C)(C)CC)c1` (centres unmarked) [Coupler d], the “Dissolution Temperature” value was determined as 60 °C.
